Results published in paper PMC12390655 (Viruses, 2025).
Ends that are not written are not given here.

How the values were obtained:
[1] = target: monopartite NLS peptide (mpNLS) from the SV40 large T antigen (SV40); experiment: fluorescence polarisation
eVP24–KPNA5-ΔIBB complex = eVP24–KPNA5-ΔIBB complex (Homo sapiens, UniProt O15131); experiment: biochemical; assay type: binding, Human KPNA5; Ebola VP24

Substance | Kd [1] [µM] | Kd (eVP24–KPNA5-ΔIBB complex) [µM]
Human KPNA5 aa 66–508 (KPNA5-ΔIBB) (domain or fragment) | 5.3 | 
KRPAATKKAGQAKKKK [bpNLS] |  | 0.21
STPPKKKRKVE [mpNLS] |  | 5.2
